Data: publication PMC6753139, “TRIM66 reads unmodified H3R2K4 and H3K56ac to respond to DNA damage in embryonic stem cells” (Nature Communications, 2019)

Biological target: T1, TRIM66-MUT968-1160 (Homo sapiens, UniProt O15016, C1161S/C1165S/C1270S/I1224T/L1137T/M1171K/V1273N/Y1166H)
T1 construct: contained residues 968 to 1160 with eight mutated residues; GST (N, cleaved yes); made in house; host or cells: Escherichia coli BL21 (DE3)
T1 sequence (O15016 1103-1295 L1137T/C1161S/C1165S/Y1166H/M1171K/I1224T/C1270S/V1273N): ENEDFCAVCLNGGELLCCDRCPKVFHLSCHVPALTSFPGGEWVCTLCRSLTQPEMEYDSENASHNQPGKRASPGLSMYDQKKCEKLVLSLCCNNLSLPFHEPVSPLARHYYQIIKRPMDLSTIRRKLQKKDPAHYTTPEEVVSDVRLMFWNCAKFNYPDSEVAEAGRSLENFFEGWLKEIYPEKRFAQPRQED
Experiment: ITC, crystallization mutant protein
Type: binding
Settings: 25 °C, 20 mM Tris, 100 mM NaCl, pH 7.5, single measurement
Description: The mutant protein of the TRIM66 PHD-Bromodomain used for the crystallographic study contained residues 968 to 1160 with eight mutated residues (L1002T, C1026S, C1030S, Y1031H, M1036K, I1089T, C1135S, and V1138N). The mutant protein was dialyzed using a buffer containing 20 mM Tris, 100 mM NaCl, and 5 mM DTT at pH 7.5 prior to the crystallographic study. The H3_1-12 peptide was dissolved in the same buffer and adjusted to pH 7.5 with a final concentration of 20 mM. Crystals of the free-state TRIM66-PHD-Bromo mutant were obtained by mixing 8 mg ml^−1 protein with an equal volume of crystallization buffer (30% w/v 5000 MME, 100 mM Tris base/hydrochloric acid pH 8.0, and 200 mM lithium sulfate) using the hanging drop vapor diffusion method at 20 °C. […]
The calorimetric experiments were performed at 25 °C using a MicroCal PEAQ-ITC. […] Peptide concentrations were estimated from the quantitative NMR experiments[73],[74]. […] The ITC data were subsequently analyzed using the MicroCal PEAQ-ITC analysis software. […]
combinational manner (Fig. 1d). To further figure out the binding mode between the TRIM66 PHD-Bromodomain and the united H3(1-15)-(48-57) K56ac peptide, we performed a NMR titration experiment and carefully analyzed the linewidth changes of TRIM66 -GSGS968-1160 (this protein is […]

Kd: 19 ± 0.76 µM
Compound: C[C@H](N)C(=O)N[C@@H](CCCNC(=N)N)C(=O)N[C@H](C(=O)N[C@@H](CCCCN)C(=O)N[C@@H](CCC(N)=O)C(=O)N[C@H](C(=O)N[C@@H](C)C(=O)N[C@@H](CCCNC(=N)N)C(=O)N[C@@H](CCCCN)C(=O)N[C@@H](CO)C(=O)N[C@H](C(=O)NCC(=O)O)[C@@H](C)O)[C@@H](C)O)[C@@H](C)O [H3_1-12]
